Results as given in PubChem BioAssay (NCI).
Where “and” joins values, the source holds several entries; their conditions need not be identical. Equal entries are not always repeated.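 All cell lines were grown in 96-well plates and treated with compound for 48 hours. GI50 is the concentration that inhibits growth by half. Definition used: TGI = concentration required for complete inhibition of growth.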

Columns and labels:
Assay in all cases: NCI anticancer screen, dose series, 48 h
OVCAR-8 ovarian = tested on: OVCAR-8 ovarian
HL-60(TB) leukemia = tested on: HL-60(TB) leukemia
A549 NSCLC = tested on: A549 NSCLC
SW-620 colon = tested on: SW-620 colon
OVCAR-4 ovarian = tested on: OVCAR-4 ovarian
OVCAR-5 ovarian = tested on: OVCAR-5 ovarian
UACC-257 melanoma = tested on: UACC-257 melanoma
SR leukemia = tested on: SR leukemia
786-0 renal = tested on: 786-0 renal
DU-145 prostate = tested on: DU-145 prostate

SMILES | TGI (OVCAR-8 ovarian) [µM] | TGI (HL-60(TB) leukemia) [µM] | TGI (A549 NSCLC) [µM] | TGI (SW-620 colon) | TGI (OVCAR-4 ovarian) [µM] | TGI (OVCAR-5 ovarian) [µM] | TGI (UACC-257 melanoma) [µM] | TGI (SR leukemia) [µM] | TGI (786-0 renal) [µM] | GI50 (OVCAR-8 ovarian) [µM] | GI50 (HL-60(TB) leukemia) [µM] | GI50 (A549 NSCLC) [µM] | GI50 (SW-620 colon) [µM] | GI50 (OVCAR-4 ovarian) [µM] | GI50 (OVCAR-5 ovarian) [µM] | GI50 (UACC-257 melanoma) [µM] | GI50 (SR leukemia) [µM] | GI50 (786-0 renal) [µM] | GI50 (DU-145 prostate) [µM] | TGI (DU-145 prostate) [µM]
Nc1ccc2n[se]nc2c1 | > 100 | > 100 | > 100 | > 100 µM | > 100 | > 100 | > 100 | > 100 | > 100 |  |  |  |  |  |  |  |  |  |  | 
O=S1(=O)N2CN3CN(C2)CN1C3 | 110 | 62.8 | 935 | 57.8 µM and 113 µM | 80.8 | 362 | 94.3 |  | 179 | 30.8 |  |  |  |  |  |  |  |  |  | 
CN(C)CCNC(=O)c1cccc2c1nc(-c1ccc(F)cc1)c1ccccc12 | 18.2 | 10.9 | 13.8 | 14.8 µM | 19.1 | 16.7 | 11.2 |  | 18.1 |  |  |  |  |  |  |  |  |  |  | 
O=C1c2ccccc2C(=O)c2cc3c(cc21)CS(=O)C3 | > 100 | > 100 | > 100 | > 100 µM | > 100 | > 100 | > 100 |  | > 100 |  |  |  |  |  |  |  |  |  |  | 
Cc1nc(N)nc(N)c1CCCCc1ccc(N)cc1 | 20.6 | 19.4 | 16.8 | 19.8 µM | 25.8 | 23 | 18.5 | 24.7 | 18.9 |  |  |  |  |  |  |  |  |  |  | 
O=C(c1ccc(O)cc1O)C1C(c2ccc(O)cc2)OC(c2ccc(O)cc2)C1C(=O)c1ccc(O)cc1O (configuration not stated) | 56.8 | 39.4 | > 100 | > 100 µM | > 100 | 29.7 | 39.7 |  | 23.2 |  |  |  |  |  |  |  |  |  |  | 
CC1(C)CCC(Sc2ccccc2)O1 (configuration not stated) | > 100 | > 100 | > 100 | > 100 µM | > 100 |  | > 100 | > 100 | > 100 |  |  |  |  |  |  |  |  |  |  | 
CCCNC(=O)Nc1c([N+](=O)[O-])cc(C(F)(F)F)cc1[N+](=O)[O-] | > 100 | 82.7 | > 100 | > 100 µM | 73.7 | > 100 | > 100 | > 100 | > 100 |  |  |  |  |  |  |  |  |  |  | 
COC(=O)C(=O)Cc1nc2ccccc2s1 | > 100 | > 100 | > 100 | > 100 µM | > 100 | > 100 | > 100 | > 100 | > 100 |  |  |  |  |  |  |  |  |  |  | 
CCOC(=O)C(C)(NC(=O)c1ccc(NCc2ccc3nc(NC(=O)c4ccccc4)nc(NC(=O)c4ccccc4)c3c2)cc1)C(=O)OCC | 17.8 | > 100 | 35.2 | > 100 µM | 4.18 | > 100 | 36.4 | > 100 | 13.3 |  |  |  |  |  |  |  |  |  |  | 
O=C(O/N=C1\CCCC\C1=C/c1ccccc1)c1ccc([N+](=O)[O-])cc1 | > 100 | > 100 | > 100 | > 100 µM | > 100 | > 100 |  | > 100 | > 100 |  |  |  |  |  |  |  |  |  |  | 
C[C@H]1CC[P+](Cc2ccccc2)(c2ccccc2)C1 (some centres not stated) | > 100 | > 100 | > 100 | > 100 µM | > 100 | > 100 | 80.2 | > 100 | > 100 |  |  |  |  |  |  |  |  |  |  | 
COc1cc(-c2cc(/C=C/C(=O)c3ccc(F)c(F)c3)[nH]n2)cc(OC)c1OC | 17.3 | 6.03 | 9.9 | > 100 µM | 71.7 | 33.8 | 6.28 | > 100 | 15.7 | 2.88 | 2.48 | 2.43 | 3.42 | 2.2 | 4.49 | 1.75 | 2.92 | 3.35 |  | 
Cc1cc(=O)oc2ccc(OC/C=C3\CCC(=O)O3)cc12 | 25 |  | 33 | 17.5 µM | 3.13 | 31.2 | 28.7 |  | 14.2 | 10 |  | 17 | 3.87 | 1.21 | 14.8 | 12.3 |  | 2.7 | 3.62 | 17.7
CC(=O)C1CCN(c2ccccc2)C1 (configuration not stated) | > 100 | > 100 | > 100 | > 100 µM | > 100 | > 100 | > 100 | > 100 | > 100 |  |  |  |  |  |  |  |  |  |  | 
NC1NC=NC2C1N=CN2C1OC(CO)C2[O][Sn][O]C21 (configuration not stated) | > 100 | > 100 | > 100 | > 100 µM | > 100 | > 100 | > 100 |  | > 100 | > 100 | > 100 | > 100 | > 100 | > 100 | > 100 | > 100 |  | > 100 |  | 
